This is an account of results in patent publication EP4755878A1, “PHOTOCHROMIC COMPOUND, PHENOL DERIVATIVE, CURABLE COMPOSITION, OPTICAL ARTICLE, LENS, AND EYEGLASS” (TOKUYAMA CORPORATION, priority 2023, dated 2025).

The nature of data set [1]: Photochromic properties of photochromic laminate (plastic lens) made by coating method. Format: physicochemical. The conditions noted are these: for Color developing density at 23°C: absorbance difference after 240 seconds irradiation at 23°C; for Color developing density at 35°C: absorbance difference after 240 seconds irradiation at 35°C; for Maximum absorption wavelength: after color development, second absorption wavelength (lower line of pair). Summed up: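 Curable coating with photochromic compound at 0.25 mmol per 100 g radically-polymerizable methacrylate monomer blend, spin-coated to 40 µm on primed, alkali-etched thiourethane lens (2 mm, n 1.60). Cured by metal halide lamp 200 mW/cm^2, 90 s under nitrogen, then 110°C for 1 h.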

The nature of data set [2]: Photochromic properties of photochromic layer (binder sheet) made by binder method. The conditions noted are these: for Color developing density at 23°C: absorbance difference after 240 seconds irradiation at 23°C; for Color developing density at 35°C: absorbance difference after 240 seconds irradiation at 35°C; for Maximum absorption wavelength: after color development, second absorption wavelength (lower line of pair).
Description: This is the maximum absorption wavelength after color development determined by a spectrophotometer manufactured by Otsuka Electronics Co., Ltd. (instantaneous multichannel photo detector MCPD3000) and was used as an index of a color tone upon color development.
This is a difference between an absorbance {ε(240)} after irradiation with light at the above-mentioned maximum absorption wavelength at 23°C for 240 seconds and an absorbance ε(0) when not irradiated with light, and was used as an index of a color developing density. The higher this value is, the better photochromic property is.
This is a difference between an absorbance {ε(240)} after irradiation with light at first and second absorption wavelengths at 35°C for 240 seconds and an absorbance ε(0) when not irradiated with light, and was used as an index of a color developing density. The higher this value is, the better photochromic property is.
Color developing density at 35°C (A35) /color developing density at 23°C (A23) × 100(%). The higher this value is, the smaller the difference in color developing density between the higher temperature and the lower temperature is, and the smaller the temperature dependence is.
This is the period of time required for the absorbance at a maximum absorption wavelength of a sample to decrease to 1/2 of {ε(240)-ε(0)}, when light irradiation is stopped after the sample had been irradiated with light at 23°C for 240 seconds, and was used as an index of a color fading rate. The shorter this period of time is, the higher the color fading rate is.
A binder sheet was made according to the following method. […] As the first and second optical sheets, polycarbonate sheets with a thickness of 400 µm were used.
Note that the photochromic compound was added to be 0.25 mmol relative to 100 parts by mass of the terminally non-reactive urethaneurea resin.

Data set [3] is described as follows: Photochromic properties of photochromic cured product made by kneading method. The data set is classed as physicochemical. The conditions noted are these: for Maximum absorption wavelength: 1 mm, after color development, second absorption wavelength (lower line of pair); for Color developing density at 23°C: absorbance difference after 240 seconds irradiation at 23°C; for Color developing density at 35°C: absorbance difference after 240 seconds irradiation at 35°C. An excerpt: First, the photochromic compound obtained in Example 1, additives, and polymerizable compounds were mixed to obtain a curable composition. As the polymerizable compounds, a blend of the following polymerizable monomers in combination was used. • 1,3-Bis(isocyanatomethyl)cyclohexane: 36.7 parts by mass Pentaerythritol tetrakis(3-mercaptopropionate): 39.4 parts by mass • Polyoxyethylene polyoxypropylene lauryl ether (WONDERSURF 140 from Aoki Oil Industrial Co., Ltd.): 17.4 parts by mass 1-Decanethiol: 2.8 parts by mass • RX-1 prepared according to the method described in Patent Document 12: 3.8 parts by mass Note that in the curable composition, the photochromic compound was added to be 0.106 mmol taking the total amount of the polymerizable monomers as 100 g.
The following additives were used. Dimethyltin dichloride: 0.05 parts by mass • Irganox 245 from BASF Japan Ltd.: 0.1 parts by mass • 2-Ethylhexyl 4-methoxycinnamate: 0.6 parts by mass
The prepared curable composition was sufficiently degassed, and then injected into a glass mold provided with a gap of 1 mm, and the curable composition was polymerized via casting polymerization. […] After the polymerization, the cured product was removed from the glass mold, to obtain photochromic cured product having a thickness of 1 mm. The resulting photochromic cured product was evaluated in the same manner as in Example 23.
(Examples 51 to 60, and Comparative Examples 11 to 14) Photochromic cured products were formed using the photochromic compound shown in Table 6 in the same manner as in Example 50.

In the case of `COc1ccc(C2(c3ccc(OC)cc3)C=Cc3c4c(c5ccc(OC)cc5c3O2)-c2ccccc2C4(C)C)cc1` [Formula (A), reference compound], the “Color developing density at 23°C” value in data set [1] (first absorption wavelength) is given as 0.69 -; in data set [1] (second absorption wavelength) it was 0.87 -; in data set [2] (first absorption wavelength) it was 0.71 -; in data set [2] (second absorption wavelength), 0.90 -; in data set [3] (first absorption wavelength), 0.72 -; in data set [3] (second absorption wavelength) it was 0.91 -. Also, the “Color developing density at 35°C” value is 0.44 - in data set [1] (first absorption wavelength); 0.55 - in data set [1] (second absorption wavelength); 0.46 - in data set [2] (first absorption wavelength); 0.58 - in data set [2] (second absorption wavelength); 0.48 - in data set [3] (first absorption wavelength); 0.61 - in data set [3] (second absorption wavelength). For the same molecule, the Maximum absorption wavelength is 569 nm in data set [1], 569 nm in data set [2] and 578 nm in data set [3].
As to `CCCCOc1ccc(C2(c3ccc(OCCCC)cc3)C=Cc3c4c(c5ccc(OC)cc5c3O2)-c2ccc(C)cc2C4(C)C)cc1` [Formula (B), reference compound], the “Color developing density at 23°C” value in data set [1] (first absorption wavelength) is reported as 0.69 -; in data set [1] (second absorption wavelength), 0.96 -; in data set [2] (first absorption wavelength), 0.75 -; in data set [2] (second absorption wavelength) it was 0.98 -; in data set [3] (first absorption wavelength), 0.76 -; in data set [3] (second absorption wavelength), 0.98 -. Also, the “Color developing density at 35°C” value in data set [1] (first absorption wavelength) is reported as 0.48 -; in data set [1] (second absorption wavelength), 0.65 -; in data set [2] (first absorption wavelength), 0.50 -; in data set [2] (second absorption wavelength), 0.67 -; in data set [3] (first absorption wavelength) it was 0.53 -; in data set [3] (second absorption wavelength), 0.69 -. Also, the Maximum absorption wavelength in data set [1] is on record as 579 nm; in data set [2], 580 nm; in data set [3], 586 nm.
For `COc1ccc(C2(c3ccc(OC)cc3)C=Cc3c4c(c5ccc(OC)cc5c3O2)-c2ccc(OC)cc2C4(C)C)cc1` [Formula (C), reference compound], the “Color developing density at 23°C” value in data set [1] (first absorption wavelength) is listed as 0.71 -; in data set [1] (second absorption wavelength), 1.04 -; in data set [2] (first absorption wavelength) it was 0.73 -; in data set [2] (second absorption wavelength), 1.06 -; in data set [3] (first absorption wavelength) it was 0.74 -; in data set [3] (second absorption wavelength), 1.07 -. Also, the “Color developing density at 35°C” value in data set [1] (first absorption wavelength) is 0.48 -; in data set [1] (second absorption wavelength) it was 0.74 -; in data set [2] (first absorption wavelength), 0.51 -; in data set [2] (second absorption wavelength), 0.75 -; in data set [3] (first absorption wavelength), 0.54 -; in data set [3] (second absorption wavelength), 0.81 -. Moreover, the Maximum absorption wavelength in data set [1] came to 593 nm; in data set [2] it was 594 nm; in data set [3], 600 nm.
With `COc1ccc(C2(c3ccc(OC)cc3)C=Cc3c4c(c5ccc(OC)cc5c3O2)-c2ccc(N3CCCCC3)cc2C4(C)C)cc1` [Formula (D), reference compound], the “Color developing density at 23°C” value in data set [1] (first absorption wavelength) is recorded as 0.78 -; in data set [1] (second absorption wavelength), 1.14 -; in data set [2] (first absorption wavelength), 0.80 -; in data set [2] (second absorption wavelength), 1.17 -; in data set [3] (first absorption wavelength) it was 0.80 -; in data set [3] (second absorption wavelength), 1.18 -. The “Color developing density at 35°C” value in data set [1] (first absorption wavelength) is reported as 0.57 -; in data set [1] (second absorption wavelength) it was 0.86 -; in data set [2] (first absorption wavelength), 0.58 -; in data set [2] (second absorption wavelength), 0.88 -; in data set [3] (first absorption wavelength), 0.62 -; in data set [3] (second absorption wavelength), 0.94 -. Also, the figures for the Maximum absorption wavelength in data set [1], in data set [2] and in data set [3] were 617 nm, 617 nm and 625 nm, respectively.
